The test system of one series is S. marcescens S-9. Briefly: In vitro antibacterial activity, twofold agar-dilution MIC. It counts as cell-based. As to conditions: Serratia marcescens, S9; S. marcescens S-9; Mueller-Hinton agar, 20-hour incubation at 37 °C; calculated for free base; read-out: minimum inhibitory concentrations (MIC). The gist of the method: (§1)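 Overnight Mueller-Hinton broth cultures were inoculated by loopful (about 10⁶ CFU) onto drug-containing agar. MIC was taken as the lowest concentration preventing visible growth, expressed in µg/ml as free base.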

In another series the test system is S. epidermidis No. 8. Described as above. It counts as cell-based. As to conditions: Staphylococcus epidermidis; S. epidermidis No. 8; Mueller-Hinton agar, 20-hour incubation at 37 °C; calculated for free base; read-out: minimum inhibitory concentrations (MIC). The essentials: as §1
Another series deals with S. pyogenes A65. Described as above. The note with it: Streptococcus pyogenes; S. pyogenes A65; Mueller-Hinton agar, 20-hour incubation at 37 °C; calculated for free base; read-out: minimum inhibitory concentrations (MIC). It counts as cell-based. The gist of the method: as §1
The next series has as its system E. coli NIHJ JC-2. The series is described as above. The format is cell-based. As to conditions: Escherichia coli, NIHJJC2; E. coli NIHJ JC-2; Mueller-Hinton agar, 20-hour incubation at 37 °C; calculated for free base; read-out: minimum inhibitory concentrations (MIC). The gist of the method: as §1
The next series relates to S. aureus 209 JC-1. The series is described as above. The format is cell-based. As to conditions: Staphylococcus aureus, 209JC1; S. aureus 209 JC-1; Mueller-Hinton agar, 20-hour incubation at 37 °C; calculated for free base; read-out: minimum inhibitory concentrations (MIC). The gist of the method:
as §1

For a further series, the system named is P. aeruginosa 12. The series is described as above. The format is cell-based. As to conditions: Pseudomonas aeruginosa; P. aeruginosa 12; Mueller-Hinton agar, 20-hour incubation at 37 °C; calculated for free base; read-out: minimum inhibitory concentrations (MIC). The gist of the method:
as §1

The nature of series [1]: Urinary excretion in mice. The format is in vivo. The protocol: A suspension containing Compound 1 was orally administered to mace at a dose of 5 mg/kg. Urine was collected over a period of 24 hours after administration. The level of the compound in urine was determined by the thin-layer cup-plated method using Escherichia coli kp as an indicator organism.

Values after ≈ are worked out from the molar mass of the structure shown.

Consider `Cc1c(F)c(N2C[C@@H](C)N[C@@H](C)C2)c(F)c2c1c(=O)c(C(=O)O)cn2C1CC1` [Compound 1, 1-cyclopropyl-6,8-difluoro-5-methyl-7-(cis-3,5-demethyl-1-piperazinyl)-1,4-dihydro-4-oxoquinoline-3-carboxylic acid], for which the MIC with S. marcescens S-9 is 0.39 µg/mL (≈ 0.996 µM); in the series with S. epidermidis No. 8 it was 0.025 µg/mL (≈ 0.0639 µM); with S. pyogenes A65, 0.2 µg/mL (≈ 0.511 µM); in the series with E. coli NIHJ JC-2 it was 0.025 µg/mL (≈ 0.0639 µM); in the series on S. aureus 209 JC-1, 0.05 µg/mL (≈ 0.128 µM); in the series on P. aeruginosa 12, 0.2 µg/mL (≈ 0.511 µM). The molecule also returned an Amount in series [1] (amount in urine over 24 hours after oral 5 mg/kg) of 0.105 mg. For the same molecule, the dose excreted at 24 h in series [1] (mouse, in vivo, oral 5 mg/kg, mice, read-out: Urinary recovery for 24 hours) was determined as 12.7%. The Volume in series [1] (urine collected over 24 hours after oral 5 mg/kg) came to 14.0 mL.

Values taken from patent EP0319906A2, “Novel quinoline derivatives, processes for preparation thereof and antibacterial agent containing them” (Dainippon Pharmaceutical Co., Ltd., priority 1987, dated 1989).
